Consider 16 molecules from ChEMBL document CHEMBL3877336, “Structure-Based Design of ASK1 Inhibitors as Potential Agents for Heart Failure” (ACS Med Chem Lett, 2017).

Bounds are passed on as bounds.

Data set [1] deals with T1, Mitogen-activated protein kinase kinase kinase 5 (Homo sapiens, UniProt Q99683).
T1 sequence (Q99683 whole entry): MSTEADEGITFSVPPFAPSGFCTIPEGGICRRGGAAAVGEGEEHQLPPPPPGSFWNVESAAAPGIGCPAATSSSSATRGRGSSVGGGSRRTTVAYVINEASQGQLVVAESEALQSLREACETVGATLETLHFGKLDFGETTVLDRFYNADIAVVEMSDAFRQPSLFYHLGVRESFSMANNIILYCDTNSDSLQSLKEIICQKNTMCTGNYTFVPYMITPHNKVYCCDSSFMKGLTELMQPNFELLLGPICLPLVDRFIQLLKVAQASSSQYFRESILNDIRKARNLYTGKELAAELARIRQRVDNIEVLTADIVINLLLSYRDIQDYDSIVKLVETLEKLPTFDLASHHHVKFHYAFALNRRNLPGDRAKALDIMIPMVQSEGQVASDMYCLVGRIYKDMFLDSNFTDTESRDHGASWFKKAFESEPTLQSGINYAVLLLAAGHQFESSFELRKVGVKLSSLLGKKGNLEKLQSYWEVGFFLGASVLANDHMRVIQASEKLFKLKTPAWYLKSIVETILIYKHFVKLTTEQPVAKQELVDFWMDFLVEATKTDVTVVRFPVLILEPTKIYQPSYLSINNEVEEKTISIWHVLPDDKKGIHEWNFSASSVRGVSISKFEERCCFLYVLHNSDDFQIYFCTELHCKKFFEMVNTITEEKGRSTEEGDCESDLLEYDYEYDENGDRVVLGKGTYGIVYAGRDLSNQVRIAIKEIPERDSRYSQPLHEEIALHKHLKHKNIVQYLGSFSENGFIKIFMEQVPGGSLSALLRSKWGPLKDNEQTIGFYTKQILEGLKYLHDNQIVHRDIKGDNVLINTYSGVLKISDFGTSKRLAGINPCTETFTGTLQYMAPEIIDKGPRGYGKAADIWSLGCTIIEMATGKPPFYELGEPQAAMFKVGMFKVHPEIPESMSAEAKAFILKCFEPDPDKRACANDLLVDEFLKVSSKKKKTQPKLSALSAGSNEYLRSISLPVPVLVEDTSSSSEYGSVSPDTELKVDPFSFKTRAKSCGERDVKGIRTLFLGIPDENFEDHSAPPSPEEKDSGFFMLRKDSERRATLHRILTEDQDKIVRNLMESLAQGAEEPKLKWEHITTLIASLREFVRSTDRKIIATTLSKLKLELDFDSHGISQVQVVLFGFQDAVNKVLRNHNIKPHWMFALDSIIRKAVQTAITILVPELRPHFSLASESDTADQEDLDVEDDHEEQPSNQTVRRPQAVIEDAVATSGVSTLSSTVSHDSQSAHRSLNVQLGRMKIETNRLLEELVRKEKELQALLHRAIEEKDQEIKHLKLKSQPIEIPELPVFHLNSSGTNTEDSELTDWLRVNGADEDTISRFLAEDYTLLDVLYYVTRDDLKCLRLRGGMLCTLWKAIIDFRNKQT
Briefly: Inhibition of recombinant human N-terminal GST-tagged ASK1 catalytic domain (654 to 971 residues) expressed in baculovirus infected sf21 cells using STK3 as substrate after 60 mins by HTRF assay.

For data set [2], the target named is T1, Mitogen-activated protein kinase kinase kinase 5. Put plainly: Inhibition of human ASK1 expressed in HEK293 cells assessed as inhibition of H2O2-induced JNK phosphorylation preincubated for 30 mins followed by H2O2 addition measured after 30 mins by ELISA. It is filed as cell-based. Background: In an ELISA, binding on a coated surface is turned into a signal by an enzyme label.

The nature of data set [3]: Intrinsic clearance in rat liver microsomes at 1 uM up to 30 mins in presence of NADPH by UPLC-MS/MS analysis. To be noted: read-out: CLH. It is filed as ADME. (In general: Liver microsomes are vesicles of endoplasmic reticulum, rich in cytochrome P450 enzymes.)
Data set [4] concerns MDR1 (human). Put plainly: Apparent permeability from basolateral to apical side in pig LLC-PK1 cells expressing human MDR1 at 10 uM after 2 hrs by LC-MS/MS analysis. In kind it is ADME, cell-based, Sus scrofa.
Data set [5] relates to MDR1 (human). Put plainly: Apparent permeability from apical to basolateral side in pig LLC-PK1 cells expressing human MDR1 at 10 uM after 2 hrs by LC-MS/MS analysis. In kind it is ADME, cell-based, Sus scrofa.
Data set [6] in a line: Solubility of the compound in pH 1 solution at 155 uM after overnight incubation by HPLC method. It is filed as physicochemical. To be noted: buffer, pH 1, 155 µM.
For data set [7], the system named is Rattus norvegicus. Briefly: Anti-ischemic activity in Langendorff perfused Sprague-Dawley rat heart assessed as reduction in infarct size at 2.25 mg/kg, po administered via gavage 8 hrs prior to ischemia/reperfusion relative to control. In kind it is functional. Also on record: scale not given: the % may be the effect or the level left.
Data set [8] is described as follows: Intrinsic clearance in human liver microsomes at 1 uM up to 30 mins in presence of NADPH by UPLC-MS/MS analysis. It is filed as ADME. As to conditions: read-out: CLH.
Data set [9] relates to Rattus norvegicus. Briefly: Anti-ischemic activity in Langendorff perfused Sprague-Dawley rat heart assessed as reduction in infarct size at 2.25 mg/kg, po administered via gavage administered 1 hr prior to ischemia/reperfusion relative to control. Also on record: scale not given: the % may be the effect or the level left. In kind it is functional.

What is called IC50 is the concentration at which inhibition is half-maximal. Turning to `Cc1cc(F)c(C(=O)Nc2ccccn2)cc1-n1cnc(C2CC2)c1`, in data set [1], the IC50 is 6310 nM.

Turning to `CC(CF)n1cnnc1-c1cccc(N2Cc3ccccc3C2=O)n1` (stereo not drawn), the IC50 in data set [1] was 12.6 nM.

As to `C[C@H](CO)n1cnnc1-c1cccc(N2Cc3ccccc3C2=O)n1`, in data set [1], the IC50 is 10 nM.

For `CC[C@@H](C)n1cnnc1-c1cccc(N2Cc3ccccc3C2=O)n1`, the IC50 in data set [1] is 50.1 nM.

In general, EC50 refers to the concentration giving half of the maximal effect. As for `COCCOc1ccc2c(c1)C(=O)N(c1cccc(-c3nncn3C(C)C)n1)C2`, in [1], the IC50 was 7.94 nM. Moreover, in data set [2], the EC50 was 15.8 nM.

A word on the Papp B→A: it is the apparent permeability from the basolateral to the apical side of a cell layer. The term Papp A→B denotes how fast a substance crosses the layer from the apical side. As for `CC(C)Oc1ccc2c(c1)C(=O)N(c1cccc(-c3nncn3[C@H](C)CO)n1)C2`, in [1], the IC50 was 5.01 nM. The values for the CLint scaled at 1 µM in data set [3] and in data set [8] were less than 16.6 mL/min/kg and less than 8.3 mL/min/kg, respectively. The Papp B→A at 2 h, 10 µM with MDR1 (human) [4] came to 26.2 ×10⁻⁶ cm/s. Further, the apparent permeability from apical to basolateral (Papp A→B) at 2 h, 10 µM with MDR1 (human) [5] came out at 5.49 ×10⁻⁶ cm/s. In [2], the EC50 is 6.31 nM. Besides, the solubility entry in data set [6] is recorded as “Soluble”. Also, the Activity in the data set on Rattus norvegicus [7] came to 24%; in the data set on Rattus norvegicus [9], 42%.

Regarding `O=C1c2ccccc2CN1c1cccc(-c2nncn2CC2CCO2)n1` (stereo not drawn), in data set [1], the IC50 was 794 nM.

As for `COCCOc1ccc2c(c1)C(=O)N(c1cccc(-c3nncn3[C@H](C)CO)n1)C2`, in [1], the IC50 is 7.94 nM. For the same molecule, in data set [2], the EC50 is 12.6 nM.

On to `CC(CCO)n1cnnc1-c1cccc(N2Cc3ccccc3C2=O)n1` (stereo not drawn), for which the IC50 in [1] is 39.8 nM.

Regarding `CC(C)n1cnnc1-c1cccc(N2Cc3ccccc3C2=O)n1`, the IC50 in data set [1] was 12.6 nM.

For the molecule `CC[C@H](C)n1cnnc1-c1cccc(N2Cc3ccccc3C2=O)n1`, the half-inhibitory concentration (IC50) in [1] is 20 nM.

As for `CC(C)Oc1ccc2c(c1)C(=O)N(c1cccc(-c3nncn3C(C)C)n1)C2`, in [1], the IC50 is 15.8 nM. In addition, in data set [2], the EC50 is 31.6 nM.

`CC(CC#N)n1cnnc1-c1cccc(N2Cc3ccccc3C2=O)n1` (stereo not drawn): the IC50 in data set [1] was 20 nM.

On to `C[C@@H](CO)n1cnnc1-c1cccc(N2Cc3ccccc3C2=O)n1`, for which the half-inhibitory concentration (IC50) in data set [1] was 31.6 nM.

Consider `CC(C)n1cnnc1-c1cccc(N2Cc3ccc(OC[C@@H]4CN(C)CCO4)cc3C2=O)n1`, for which, in data set [1], the IC50 is 6.31 nM. For the same molecule, the EC50 in [2] is 6.31 nM.

For `Cc1ccc(C(=O)Nc2cccc(-c3nncn3C(C)C)n2)c(F)c1`, the IC50 in [1] was 50.1 nM.
